Where two headings read alike, the source gives them in different places.
Assays:
Drosophila OR10a = target: T1, Drosophila OR10a (Drosophila melanogaster, UniProt Q9VYZ1); assay: Calcium ion fluorescence (GCaMP6) assay, OR10a stable HEK293 cell line; assay type: cell-based
T1 construct: expressed in transfected cells
T1 sequence (Q9VYZ1 1-406): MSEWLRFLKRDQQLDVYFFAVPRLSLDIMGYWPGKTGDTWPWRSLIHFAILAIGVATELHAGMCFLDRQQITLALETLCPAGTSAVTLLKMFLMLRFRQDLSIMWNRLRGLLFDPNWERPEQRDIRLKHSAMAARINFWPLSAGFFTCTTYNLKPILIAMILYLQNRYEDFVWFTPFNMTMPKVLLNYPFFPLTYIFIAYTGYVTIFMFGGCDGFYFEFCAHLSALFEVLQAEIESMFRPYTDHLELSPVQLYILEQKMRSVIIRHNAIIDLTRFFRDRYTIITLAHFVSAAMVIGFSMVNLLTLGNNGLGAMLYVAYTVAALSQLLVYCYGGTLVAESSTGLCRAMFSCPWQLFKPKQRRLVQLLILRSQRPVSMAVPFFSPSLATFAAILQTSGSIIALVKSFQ
T1 sequence (Q9VNB5 1-486 partner): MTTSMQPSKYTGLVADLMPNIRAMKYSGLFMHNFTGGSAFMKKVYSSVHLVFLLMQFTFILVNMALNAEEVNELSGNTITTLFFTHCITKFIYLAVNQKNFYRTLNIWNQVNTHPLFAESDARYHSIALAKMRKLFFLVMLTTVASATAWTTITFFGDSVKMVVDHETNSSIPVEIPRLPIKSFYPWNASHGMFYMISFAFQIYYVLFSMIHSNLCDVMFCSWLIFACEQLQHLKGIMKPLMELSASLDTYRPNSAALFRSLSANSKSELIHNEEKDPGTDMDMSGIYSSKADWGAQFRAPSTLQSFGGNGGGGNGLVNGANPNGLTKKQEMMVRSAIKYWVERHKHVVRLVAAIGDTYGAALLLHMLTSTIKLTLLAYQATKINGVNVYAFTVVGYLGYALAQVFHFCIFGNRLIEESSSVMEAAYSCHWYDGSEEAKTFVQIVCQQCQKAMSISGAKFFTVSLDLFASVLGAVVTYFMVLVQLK
Procedure, shortened: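 Responses are VUAA1-normalized ΔF: each VOC-evoked calcium signal, (FMAX−F0)/F0 over 30 s after injection, divided by the same line's mean 50 µM VUAA1 response. Cells were doxycycline-induced HEK293 with GCaMP6 and the cognate Drosophila OR, in HEPES buffer pH 7.3; ligands tested 0.01–100 μM.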

Drosophila OR13a = target: T2, Drosophila OR13a (Drosophila melanogaster, UniProt Q9VXL0); assay: Calcium ion fluorescence (GCaMP6) assay, OR13a stable HEK293 cell line; assay type: cell-based
T2 construct: expressed in transfected cells
T2 sequence (Q9VXL0 1-418): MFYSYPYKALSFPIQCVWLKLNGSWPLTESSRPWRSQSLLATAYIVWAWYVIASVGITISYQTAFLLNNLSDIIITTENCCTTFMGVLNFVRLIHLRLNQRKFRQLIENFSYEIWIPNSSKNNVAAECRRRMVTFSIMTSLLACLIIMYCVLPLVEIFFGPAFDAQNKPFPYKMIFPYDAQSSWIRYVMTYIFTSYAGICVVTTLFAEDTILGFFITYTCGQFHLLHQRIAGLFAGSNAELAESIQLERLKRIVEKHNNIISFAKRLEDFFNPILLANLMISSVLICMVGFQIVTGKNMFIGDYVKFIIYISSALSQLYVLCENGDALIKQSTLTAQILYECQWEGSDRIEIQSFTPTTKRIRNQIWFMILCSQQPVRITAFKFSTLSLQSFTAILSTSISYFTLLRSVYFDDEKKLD
T2 sequence (Q9VNB5 1-486 partner): T1 sequence (Q9VNB5 1-486 partner)
Experimental: These VUAA1 normalized ∆F values were used to compare the different receptors and ligands.
The concentration-dependent effect of the reference ligands on their cognate cell lines was examined in more detail. Twelve different ligand concentrations were measured on each cell line in an overall 0.01 μM to 100 μM concentration range with 5 repetitions with three technical replicates each time.
Twelve thousand to 18,000 cells were plated into each well of a black wall, transparent bottom 384-well microplate (Greiner) 48 h or 72 h before the measurements and were simultaneously treated with 1 μg/mL doxycycline. […] The plate has 24 columns, thus we could record responses in up to eight different cell lines in each plate. On the day of the experiment, the growth medium was replaced with 20 µL assay buffer/well (140 mM NaCl, 5 mM KCl, 2 mM CaCl2, 1 mM MgCl2, 5 mM HEPES-Na, 20 mM glucose, pH 7.3, 340 mOsm). […] Baseline fluorescence (F0) was recorded for 5 s, after which 7 µL VOC buffer (140 mM NaCl, 5 mM KCl, 2 mM CaCl2, 1 mM MgCl2, 5 mM HEPES-Na, 31 mM glucose, 0.1% DMSO, pH 7.3, 340 mOsm) was injected into each well in one row and the fluorescence response was recorded for an additional 30 s, at a rate of one read/sec. VOC solutions (VOC buffer with 4× concentration of the final measured VOC concentration, 9 µL/well was injected) were measured on the same wells in a second round with the same protocol. Each individual concentration of a specific VOC sample was recorded in three wells for the same cell line on the same microplate. The raw data were exported in xls file format, F0 and FMAX values, and the fluorescence intensity changes (∆F) were calculated in Excel (Microsoft) (Supplementary file Data summary.xlsx) using the following equation: ΔF=FMAX-F0/F0 (see also Fig. 1C). On each plate, we recorded the response of each cell line to 50 µM VUAA1. The average of these ∆F values of each cell line were used to calculate the VUAA1-normalized values for the rest of the plate, by dividing VOC response ∆F values by the average VUAA1 response ∆F value of the corresponding OR cell line. Each VOC-OR combination was measured three times as technical replicates. […] The average of these replicates were used as one ∆F and VUAA1-normalized ∆F in the following analysis.
In the next rows we tested the reference VOCs (or other VOCs known to activate the corresponding cell lines), in order to test if all cell lines are responsive. The remaining rows were used to test VOCs with unknown effect.
The recorded FMAX, F0, ∆F, VUAA1-normalized ∆F values, as well as the OR name, the name of the tested sample, and the final concentration for each well were copied into supplementary file Data summary.xlsx, that was used to summarize all the plates recorded. Here, the averages of the measurements were calculated for each receptor-VOC-concentration combination.

[1] = HEK293, read-out: OR10a Average response (VUAA1-normalized), 1 μM VOC, 50 μM VUAA1 = 1, responses not exceeding 0.05 considered 0
[2] = HEK293, read-out: OR10a Average response (VUAA1-normalized), 10 μM VOC, 50 μM VUAA1 = 1, responses not exceeding 0.05 considered 0
[3] = HEK293, read-out: OR10a Average response (VUAA1-normalized), 100 μM VOC, 50 μM VUAA1 = 1, responses not exceeding 0.05 considered 0
[4] = ligand concentration 1 (unit not given), threshold 0.05, below shown as 0
[5] = ligand concentration 10 (unit not given), threshold 0.05, below shown as 0
[6] = ligand concentration 100 (unit not given), threshold 0.05, below shown as 0
[7] = HEK293, read-out: OR13a Average response (VUAA1-normalized), 1 μM VOC, 50 μM VUAA1 = 1, responses not exceeding 0.05 considered 0
[8] = HEK293, read-out: OR13a Average response (VUAA1-normalized), 10 μM VOC, 50 μM VUAA1 = 1, responses not exceeding 0.05 considered 0
[9] = HEK293, read-out: OR13a Average response (VUAA1-normalized), 100 μM VOC, 50 μM VUAA1 = 1, responses not exceeding 0.05 considered 0
[10] = HEK293, 1 μM VOC, 50 μM VUAA1 = 1, responses not exceeding 0.05 considered 0, read-out: OR10a Average response (VUAA1-normalized)
[11] = HEK293, 10 μM VOC, 50 μM VUAA1 = 1, responses not exceeding 0.05 considered 0, read-out: OR10a Average response (VUAA1-normalized)
[12] = HEK293, 100 μM VOC, 50 μM VUAA1 = 1, responses not exceeding 0.05 considered 0, read-out: OR10a Average response (VUAA1-normalized)
[13] = HEK293, read-out: OR10a response (VUAA1-normalized response), VOC concentration 1 μM
[14] = HEK293, read-out: OR10a response (VUAA1-normalized response), VOC concentration 10 μM
[15] = HEK293, read-out: OR10a response (VUAA1-normalized response), VOC concentration 100 μM
[16] = HEK293, read-out: OR13a response (VUAA1-normalized response), VOC concentration 1 μM
[17] = HEK293, read-out: OR13a response (VUAA1-normalized response), VOC concentration 10 μM
[18] = HEK293, read-out: OR13a response (VUAA1-normalized response), VOC concentration 100 μM
[19] = concentration 1, normalized fluorescence change, values below 0.05 threshold given as 0
[20] = concentration 10, normalized fluorescence change, values below 0.05 threshold given as 0
[21] = concentration 100, normalized fluorescence change, values below 0.05 threshold given as 0
[22] = 1 μM VOC, 50 μM VUAA1 = 1, responses not exceeding 0.05 considered 0
[23] = 10 μM VOC, 50 μM VUAA1 = 1, responses not exceeding 0.05 considered 0
[24] = 100 μM VOC, 50 μM VUAA1 = 1, responses not exceeding 0.05 considered 0

Structure (SMILES)	OR10a response (VUAA1-normalized response) (Drosophila OR10a; VOC concentration 1 μM)	OR10a response (VUAA1-normalized response) (Drosophila OR10a; VOC concentration 10 μM)	OR10a response (VUAA1-normalized response) (Drosophila OR10a; VOC concentration 100 μM)	OR13a response (VUAA1-normalized response) (Drosophila OR13a; VOC concentration 1 μM)	OR13a response (VUAA1-normalized response) (Drosophila OR13a; VOC concentration 10 μM)	OR13a response (VUAA1-normalized response) (Drosophila OR13a; VOC concentration 100 μM)	activation at 1 µM (Drosophila OR10a; [1])	activation at 10 µM (Drosophila OR10a; [2])	activation at 1 µM (Drosophila OR13a; [7])	activation at 10 µM (Drosophila OR13a; [8])	activation at 100 µM (Drosophila OR13a; [9])	activation at 1 µM (Drosophila OR10a; [13])	activation at 10 µM (Drosophila OR10a; [14])	activation at 100 µM (Drosophila OR10a; [15])	activation at 1 µM (Drosophila OR13a; [16])	activation at 10 µM (Drosophila OR13a; [17])	activation at 100 µM (Drosophila OR13a; [18])	DF norm AVERAGE OR13a (Drosophila OR13a; [19])	DF norm AVERAGE OR13a (Drosophila OR13a; [20])	DF norm AVERAGE OR13a (Drosophila OR13a; [21])	other results
CC/C=C\CCO [E-3-hexenol]	0.00	0.00	0.074	0.00	0.00	0.07															
Cc1ccc(C(C)C)cc1 [p-cymene]							0%	0%	0%	0%	0%										activation at 100 µM (Drosophila OR10a; [3]): 0%; OR10a response (VUAA1-normalized) at 1 μM (Drosophila OR10a; OR10a cell line, VOC concentration 1 μM): 0.00; OR10a response (VUAA1-normalized) at 10 μM (Drosophila OR10a; OR10a cell line, VOC concentration 10 μM): 0.00; OR10a response (VUAA1-normalized) at 100 μM (Drosophila OR10a; OR10a cell line, VOC concentration 100 μM): 0.00; DF norm AVERAGE OR10a (Drosophila OR10a; [4]): 0; DF norm AVERAGE OR10a (Drosophila OR10a; [5]): 0; DF norm AVERAGE OR10a (Drosophila OR10a; [6]): 0; OR13a response (VUAA1-normalized) at 1 μM (Drosophila OR13a; OR13a cell line, VOC concentration 1 μM): 0.00; OR13a response (VUAA1-normalized) at 10 μM (Drosophila OR13a; OR13a cell line, VOC concentration 10 μM): 0.00; OR13a response (VUAA1-normalized) at 100 μM (Drosophila OR13a; OR13a cell line, VOC concentration 100 μM): 0.00; DF norm AVERAGE OR13a (Drosophila OR13a; [4]): 0; DF norm AVERAGE OR13a (Drosophila OR13a; [5]): 0; DF norm AVERAGE OR13a (Drosophila OR13a; [6]): 0
CCCC(O)CC (stereo not shown) [3-hexanol]									5%	4.43%	1.88%	16%	0%	6%	0%	0%	0%	0	0	0	activation at 1 µM (Drosophila OR10a; [10]): 16%; activation at 10 µM (Drosophila OR10a; [11]): 2.57%; activation at 100 µM (Drosophila OR10a; [12]): 6%
CCCCC(C)=O [2-hexanone]							10%	0%	6%	0%	0%	10%	0%	0%	6%	0%	0%	0.05965	0	0	activation at 100 µM (Drosophila OR10a; [3]): 0%; DF norm AVERAGE OR10a (Drosophila OR10a; [19]): 0.09901; DF norm AVERAGE OR10a (Drosophila OR10a; [20]): 0; DF norm AVERAGE OR10a (Drosophila OR10a; [21]): 0
CCOC(=O)CC [ethyl propionate]									0%	0%	0%	0%	0%	0%	0%	0%	0%				activation at 1 µM (Drosophila OR10a; [10]): 1.56%; activation at 10 µM (Drosophila OR10a; [11]): 1.89%; activation at 100 µM (Drosophila OR10a; [12]): 0%; DF norm AVERAGE OR10a (Drosophila OR10a; [4]): 0; DF norm AVERAGE OR10a (Drosophila OR10a; [5]): 0; DF norm AVERAGE OR10a (Drosophila OR10a; [6]): 0; DF norm AVERAGE OR13a (Drosophila OR13a; [4]): 0; DF norm AVERAGE OR13a (Drosophila OR13a; [5]): 0; DF norm AVERAGE OR13a (Drosophila OR13a; [6]): 0
C=C(C)C1CCC2(C)OC2C1 (single isomer, unassigned; (+)) [(+)-limonene oxide]	0.00	0.00	0.00	0.00	0.00	0.00												0	0	0	DF norm AVERAGE OR10a (Drosophila OR10a): 0; OR10a Average response (VUAA1-normalized) (Drosophila OR10a; [22]): 0.00; OR10a Average response (VUAA1-normalized) (Drosophila OR10a; [23]): 0.02; OR10a Average response (VUAA1-normalized) (Drosophila OR10a; [24]): 0.00; OR13a Average response (VUAA1-normalized) (Drosophila OR13a; [22]): 0.00; OR13a Average response (VUAA1-normalized) (Drosophila OR13a; [23]): 0.00; OR13a Average response (VUAA1-normalized) (Drosophila OR13a; [24]): 0.00
